Assays:
Format in all cases: in vivo
Set-up in all cases: scale not given here
[1] = system: Echinochloa oryzicola Vasing; assay: Herbicidal effects in paddy field soil treatment (Test Example 1); conditions: for Herbicidal effects index, Echinochloa oryzicola Vasing: paddy field soil treatment, 1000 g of the active ingredient per hectare, wettable powder added dropwise on water surface, 21st day after treatment
Outline: (§1)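 Scoring of herbicidal effect took place 21 days after treatment, using a rating scale, on plants grown in a greenhouse. The test compound, formulated as a wettable powder and diluted with water, had been applied dropwise to the flood water at 1000 g active ingredient per hectare, one day after sowing into puddled paddy soil held under 3 cm of water.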

[2] = system: Monochoria vaginalis (Burm. f.) Presl var. plantaginea (Roxb.) Solms-Laub.; assay: as above; conditions: for Herbicidal effects index, Monochoria vaginalis (Burm. f.) Presl var. plantaginea (Roxb.) Solms-Laub.: paddy field soil treatment, 1000 g of the active ingredient per hectare, wettable powder added dropwise on water surface, 21st day after treatment
Outline: as §1

[3] = system: Scirpus juncoides Roxb. var. ohwianus. T. Koyama; assay: as above; conditions: for Herbicidal effects index, Scirpus juncoides Roxb. var. ohwianus. T. Koyama: paddy field soil treatment, 1000 g of the active ingredient per hectare, wettable powder added dropwise on water surface, 21st day after treatment
Outline: as §1

[4] = system: Abutilon theophrasti medicus; assay: Herbicidal effects in upland field soil treatment (Test Example 2); conditions: 1000 g active ingredient per hectare, 21st day after treatment, criteria of Table 138
Outline: (§2)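 Herbicidal effect was rated visually against set criteria on the 21st day after a pre-emergence soil-surface spray of diluted wettable powder delivering 1000 g active ingredient per hectare (1000 L/ha). Seeds had been sown and covered in upland field soil; plants grew in a greenhouse.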

Amaranthus viridis L. [5] = assay: as above; conditions: 1000 g active ingredient per hectare, 21st day after treatment, criteria of Table 138
Outline: as §2

[6] = system: Abutilon theophrasti medicus; assay: Herbicidal effects in upland field foliar treatment (Test Example 3); conditions: criteria of Table 138; for herbicidal effects on Abutilon theophrasti medicus: 1000 g of the active ingredient per hectare, 14th day after the treatment, wettable powder; for herbicidal effect (index) on Abutilon theophrasti medicus: 1000 g active ingredient per hectare, 14th day after treatment
Outline: (§3)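 Herbicidal activity is rated visually on a fixed scale 14 days after foliar application. Plants raised from seed in upland field soil for two weeks under glass receive a water dilution of a wettable powder at 1000 g a.i. per hectare in 1000 L/ha.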

Amaranthus viridis L. [7] = assay: as above; conditions: criteria of Table 138; for herbicidal effects on Amaranthus viridis L.: 1000 g of the active ingredient per hectare, 14th day after the treatment, wettable powder; for herbicidal effect (index) on Amaranthus viridis L.: 1000 g active ingredient per hectare, 14th day after treatment
Outline: as §3

[8] = system: Echinochloa crus-galli (L.) P. Beauv. var. crus-galli; assay: as above; conditions: criteria of Table 138; for herbicidal effects on Echinochloa crus-galli (L.) P. Beauv. var. crus-galli: 1000 g of the active ingredient per hectare, 14th day after the treatment, wettable powder; for herbicidal effect (index) on Echinochloa crus-galli (L.) P. Beauv. var. crus-galli: 1000 g active ingredient per hectare, 14th day after treatment
Outline: as §3

[9] = paddy field soil treatment (Test Example 1), criteria of Table 138

SMILES	Herbicidal effects index, Echinochloa oryzicola Vasing [1]	Herbicidal effects index, Monochoria vaginalis (Burm. f.) Presl var. plantaginea (Roxb.) Solms-Laub. [2]	Herbicidal effects index, Scirpus juncoides Roxb. var. ohwianus. T. Koyama [3]	herbicidal effect (index) on Abutilon theophrasti medicus [4]	herbicidal effect (index) on Amaranthus viridis L. (Amaranthus viridis L. [5])	herbicidal effects on Abutilon theophrasti medicus [6]	herbicidal effects on Amaranthus viridis L. (Amaranthus viridis L. [7])	herbicidal effects on Echinochloa crus-galli (L.) P. Beauv. var. crus-galli [8]	herbicidal effect (index) on Abutilon theophrasti medicus [6]	herbicidal effect (index) on Amaranthus viridis L. (Amaranthus viridis L. [7])	herbicidal effect (index) on Echinochloa crus-galli (L.) P. Beauv. var. crus-galli [8]	herbicidal effect (index) on Echinochloa oryzicola Vasing [1, 9]	herbicidal effect (index) on Monochoria vaginalis (Burm. f.) Presl var. plantaginea (Roxb.) Solms-Laub. [2, 9]	herbicidal effect (index) on Scirpus juncoides Roxb. var. ohwianus. T. Koyama [3, 9]
CC1(C)CC(=O)C(C(=O)c2nc3ccccc3n(-c3ccc4c(c3)OCCO4)c2=O)=C(O)C1 [II-228]	5	5	5	5	5	5	5	5	–	–	–	–	–	–
COc1ccc2nc(C(=O)C3=C(O)CCCC3=O)c(=O)n(-c3ccccc3)c2c1 [II-252]	5	5	5	5	5	5	5	5	–	–	–	–	–	–
O=C1CCCC(O)=C1C(=O)c1nc2ccccc2n(-c2ccc3c(c2)CCO3)c1=O [I-201]	5	5	5	4	5	–	–	–	4	5	5	–	–	–
O=C1CCCC(O)=C1C(=O)c1nc2ccccc2n(-c2ccc(F)cn2)c1=O [I-176]	5	5	5	5	5	–	–	–	5	5	5	–	–	–
COc1ccc(-n2c(=O)c(C(=O)C3=C(O)CCCC3=O)nc3ccc(Cl)cc32)cc1 [II-196]	4	5	5	4	5	5	5	5	–	–	–	–	–	–
Cc1cccc(-n2c(=O)c(C(=O)C3=C(O)CCCC3=O)nc3ccccc32)c1 [II-20]	5	5	5	5	5	5	5	5	–	–	–	–	–	–
O=C1CCCC(O)=C1C(=O)c1nc2ccc(F)cc2n(-c2ccc3c(c2)OCO3)c1=O [II-225]	5	5	5	5	5	5	5	5	–	–	–	–	–	–
O=C1CCCC(O)=C1C(=O)c1nc2ccccc2n(-c2ccc3c(c2)CCCC3)c1=O [II-223]	5	5	5	4	5	5	5	5	–	–	–	–	–	–
Cn1nc(-n2c(=O)c(C(=O)C3=C(O)CCCC3=O)nc3ccccc32)cc1C(F)(F)F [I-267]	5	5	5	5	5	–	–	–	5	5	5	–	–	–
O=C1CCCC(O)=C1C(=O)c1nc2cccnc2n(-c2ccccc2OC(F)F)c1=O [IV-85]	–	–	–	5	5	5	5	5	–	–	–	5	5	5
O=C1CCCC(O)=C1C(=O)c1nc2ccccc2n(-c2cccc(OC(F)F)c2)c1=O [II-90]	5	5	5	5	5	5	5	5	–	–	–	–	–	–
O=C1CCCC(O)=C1C(=O)c1nc2ccccc2n(-c2nncs2)c1=O [I-269]	5	5	5	5	5	–	–	–	5	5	5	–	–	–
O=C1CCCC(O)=C1C(=O)c1nc2c(Cl)cccc2n(-c2ccccc2)c1=O [II-190]	5	5	5	5	4	5	5	4	–	–	–	–	–	–
O=C1CCCC(O)=C1C(=O)c1nc2cccnc2n(-c2ccccc2C(F)(F)F)c1=O [IV-34]	5	5	5	5	5	5	5	5	–	–	–	–	–	–
O=C1CCCC(O)=C1C(=O)c1nc2cccnc2n(-c2ccc(Br)cc2)c1=O [IV-18]	5	5	5	5	5	5	5	5	–	–	–	–	–	–

Source: patent US8389523B2, “Substituted quinoxaline and an agrochemical composition thereof” (Kumiai Chemical Industry Co., Ltd., priority 2007, dated 2013)
